According to patent publication US12428369B2, “Crystal form of aromatic vinyl derivatives, and preparation method therefor and use thereof” (GUANGZHOU MAXINOVEL PHARMACEUTICALS CO., LTD., priority 2020, dated 2025):
Converted amounts (≈) assume the structure as drawn.

Tests used:
Format in all cases: physicochemical
[1] = Solid-state stability: content and related substances by HPLC
Protocol: (§1) The samples of crystal forms A, B, and C were weighed and added to a 20 mL colorless transparent glass bottle, respectively, and the sample bottles were respectively placed under the corresponding influencing factors and acceleration conditions (the sample bottles under humidity conditions were sealed with tin foil and placed with holes, and the other samples were covered tightly and placed), taken out after being placed for 1 week and 2 weeks respectively, and the sample content and related substances under various conditions were detected by HPLC; according to the same method as above, samples were respectively weighed and placed under a corresponding influencing factor and accelerated condition, and were taken out after being placed for 2 weeks for observing the appearance and XRPD characterization of each sample, and the physical stability of each crystal form was examined, and the test methods are detailed in table 14 and table 15; at the same time, 2 samples of the crystal forms A, B, and C of the compound as shown in formula I were respectively weighed accurately into 20 mL colorless transparent glass bottles and covered tightly, placed in a −20° C. refrigerator, and taken out as a standard for HPLC analysis at 2 weeks, and the test results are detailed in table 16 and table 17.

[2] = Solid-state stability: appearance and crystal form (XRPD)
Protocol: as §1

[3] = Dynamic vapor sorption (DVS) analysis; conditions: 25° C.
Protocol: (§2) The hygroscopic characteristics of the sample were tested when the humidity changed from 0% RH to 95% RH, and the dehumidifying characteristics of the sample were tested when the humidity changed from 95% RH to 0% RH. The humidity change in each step size was 5% RH, the equilibrium standard was that the weight change rate within 10 min was less than 0.01%/min, and the longest equilibrium time was 2 hours.
as §2, with “5” for “10”

[4] = Equilibrium solubility and dissolution rate in water, SGF, FaSSIF, FeSSIF; conditions: 37° C.
Protocol: To further study whether the equilibrium solubility and dissolution rate of crystal forms A, B and C are different in pure water and physiological related media in vivo, the equilibrium solubility and dissolution rate of […] crystal forms in water, simulated gastric fluid (SGF), fasted-state simulated intestinal fluid (FaSSIF) and fed state simulated intestinal fluid (FeSSIF) were tested respectively.

[5] = Crystal form conversion on heating; conditions: heated to 200° C.
Protocol: 100 mg of the compound as shown in formula I sample was weighed and added to a bottle, then 20 times the volume of methanol was added to the bottle, and the mixture was magnetic stirred and slurried for 14 days at room temperature.
100 mg of the compound as shown in formula I sample was weighed and added to a glass bottle, and 100 times the volume of ethyl acetate (EA) and 20 times the volume of methanol (MeOH) were added to the bottle, and the sample was placed on a magnetic heating stirrer. The mixture was magnetic stirred to fully dissolve at a water bath of 50° C., filtered and the filtrate was slowly cooled to room temperature at a rate of 6° C./h, overnight, filtered under reduced pressure, and the solid was dried at 70° C. for 4 hours.
100 mg of the compound as shown in formula I sample was weighed and added to a bottle, then 30 times the volume of acetonitrile (ACN) (sample mass (g)×volume multiples) was added to the bottle, and the mixture was magnetic stirred and slurried for 2 days at room temperature, filtered under reduced pressure, and the solid was collected, and dried at 40° C. for 4 hours. The solid after drying was characterized, and the crystal form was defined as a crystal form VIII, and the XRPD pattern of the crystal form VIII is as shown in FIG. 20. […]

[6] = Acceleration (40° C./75% RH), 1 week
[7] = Acceleration (40° C./75% RH), 2 weeks
[8] = High humidity (92.5% RH), 1 week
[9] = High humidity (92.5% RH), 2 weeks
[10] = High temperature (60° C.), 1 week
[11] = High temperature (60° C.), 2 weeks
[12] = illumination (4500 LuX), 1 week
[13] = illumination (4500 LuX), 2 weeks
[14] = Illumination (4500 Lux), 2 weeks

Cc1c(/C=C/c2cc(CN[C@@](C)(CO)C(=O)O)ccc2C(F)(F)F)cccc1-c1ccccc1 [Crystal form C]
Content [1, 6]: 100.06% | Total related substances [1, 6]: 0.00% | Content [1, 7]: 99.89% | Total related substances [1, 7]: 0.00% | Content ([1]; Control, −20° C., 2 weeks): 100.00% | Total related substances ([1]; Control, −20° C., 2 weeks): 0.00% | Content [1, 8]: 101.55% | Total related substances [1, 8]: 0.00% | Content [1, 9]: 100.59% | Total related substances [1, 9]: 0.00% | Content [1, 10]: 98.41% | Total related substances [1, 10]: 0.00% | Content [1, 11]: 100.18% | Total related substances [1, 11]: 0.00% | Content [1, 12]: 102.18% | Total related substances [1, 12]: 0.52% | Content [1, 13]: 98.64% | Total related substances [1, 13]: 1.56% | Appearance [2, 7]: Off-white | Crystal form (XRPD) after storage [2, 7]: Crystal form C | Appearance ([2]; Control, −20° C., 2 weeks): Off-white | Crystal form (XRPD) after storage ([2]; Control, −20° C., 2 weeks, listed as Crystal form C-Control): Crystal form C | Appearance [2, 9]: Off-white | Crystal form (XRPD) after storage [2, 9]: Crystal form C | Appearance [2, 11]: Off-white | Crystal form (XRPD) after storage [2, 11]: Crystal form C | Appearance [2, 14]: Off-white | Crystal form (XRPD) after storage [2, 14]: Crystal form C | physical stability ([2]; four storage conditions, 2 weeks (conclusion)): good | Appearance ([2]; high temperature, high humidity, illumination and acceleration, 2 weeks (conclusion)): off-white | hygroscopicity ([3]; assessment in words): hygroscopic | weight gain ([3]; from 0% RH to 95% RH): 4.767% | Solubility ([4]; FaSSIF (rows r12-r14), 0.5 hours, listed as C): 9.1 µg/mL (≈ 19.4 µM) | Solubility ([4]; FaSSIF (rows r12-r14), 2 hours, listed as C): 2.2 µg/mL (≈ 4.69 µM) | Solubility ([4]; FaSSIF (rows r12-r14), 24 hours, listed as C): 4.5 µg/mL (≈ 9.58 µM) | Solubility ([4]; FaSSIF as printed (second set, rows r15-r17), 0.5 hours, listed as C): 181.7 µg/mL (≈ 387 µM) | Solubility ([4]; FaSSIF as printed (second set, rows r15-r17), 2 hours, listed as C): 174.3 µg/mL (≈ 371 µM) | Solubility ([4]; FaSSIF as printed (second set, rows r15-r17), 24 hours, listed as C): 166.6 µg/mL (≈ 355 µM) | Solubility ([4]; SGF, 0.5 hours): 0.3 µg/mL (≈ 0.639 µM) | Solubility ([4]; SGF, 2 hours): 0.2 µg/mL (≈ 0.426 µM) | Solubility ([4]; SGF, 24 hours): 0.5 µg/mL (≈ 1.06 µM) | Solubility ([4]; Water, 0.5 hours): 1.7 µg/mL (≈ 3.62 µM) | Solubility ([4]; Water, 2 hours): 6.5 µg/mL (≈ 13.8 µM) | Solubility ([4]; Water, 24 hours): 1.8 µg/mL (≈ 3.83 µM) | crystal form after heating [5]: converted into the crystal form A
